Assay results taken from US9023987B2, “Cell-permeable peptide” (Seoul National University R&DB Foundation, priority 2010, dated 2015).

Columns and labels:
[1] = tested on: Smad1/5/8 phosphorylation, RUNX2; experiment: Western blot of signal transduction proteins in cytoplasmic and nuclear fractions; format: cell-based, human; conditions: 10 μm, 1.5 hours, hMSC, compared with PBS; FIG. 4D
Description: In order to confirm cell differentiation ability of the cell permeable peptide-bone differentiation inducing sequence conjugate, using proteins serving an important role in signal transduction pathways in the cytoplasmic fraction and the nuclear fraction, human mesenchymal stem cells (hMSC) were seeded in each well of a 10 cm-dish at 1×10^6/well, and then incubated in a general medium for 20 hours (overnight) for cell stabilization. After 20 hours of the incubation, the cells were treated with the cell permeable peptide-bone differentiation inducing sequence conjugate and the bone differentiation inducing sequence of Comparative Example 2 of 10 μm for each for 1.5 hours.
After that, in order to compare the expression degree of intercellular protein, in each of the cells treated with the cell permeable peptide-bone differentiation inducing sequence conjugate of Example 1 and the bone differentiation inducing sequence of Comparative Example 2, cytoplasm and nucleus were separated using NE-PER nuclear and cytoplasmic extraction reagents according to the manufacturer's instructions (Pierce, USA). The protein in the hMSC lysis solution containing the separated cytoplasm and nucleus was determined by Bradford's assay, and then subjected to electrophoresis using 10% polyacrylamide gel at 120 volts for 4 hours. […]

[2] = target: T1, human-derived Smurf1 protein (Homo sapiens, UniProt Q9HCE7); experiment: Affinity to Smurf1 by surface plasmon resonance (BIACORE T100); format: binding; conditions: 10 mM analyte over Smurf1 coupled to CM5 chip; FIG. 2A
T1 construct: purchased Origene Technologies (Rockville, Md., USA)
Description: In order to confirm the affinity between cell permeable peptide-bone differentiation inducing sequence conjugate and Smurf1 by a chemical method, a human-derived Smurf1 protein acting as a ligand in the present experiment was purchased from Origene Technologies (Rockville, Md., USA). The protein ([…]) was coupled to a gold coated surface of a CM5 chip (BIACORE AB, Sweden) on which amino groups are bounded using an EDC/NHS kit (BIACORE AB, Sweden). (Instead of this experimental method, ‘Immobilization’ integrated into the BIACORE® T100 (BIACORE AB, Sweden) software used by the present inventors may be used). In this case, in order to find a suitable pH condition at which the protein may bind to the amino group in the CM5 chip, a method called ‘pH scouting’ was performed, thereby finding a pH condition. As a method of ‘pH scouting’, a method integrated in the BIACORE® T100 (BIACORE AB, Sweden) software used by the present inventors may be used. […]

[3] = tested on: human mesenchymal stem cells (hMSC); experiment: Cytotoxicity by MTT assay; format: cell-based; set-up: dose or concentration left out as unconfirmed; conditions: 24, 48, and 72 hours, FIG. 5
Description: In order to confirm whether or not cell proliferation is affected by potential toxicity when the cell permeable peptide-bone differentiation inducing sequence conjugate and control domains are cultured with hMSC, a 3-[4,5-dimethylthiazo-2-yl]-2,5-diphenyl tetrazolium bromide thiazolyl blue (MTT) assay method was used.
The MTT assay method is a method for measuring cytotoxicity by measuring absorbance of formazan produced as mitochondrial dehydrogenases in alive and metabolically active cells reduces MTT to indicate the absorbance as a percentage based on the control group. In this case, the measured absorbance reflects a concentration of the alive and metabolically active cells. 2,3,5-triphenyl tetrazolium chloride (TTC) is reduced to formazan in live cells. The formazan is insoluble purple color, and a respiration rate may be measured by a degree of color. The absorbance of formazan is maximal at 540 nm, and the absorbance measured at this wavelength reflects the concentration of the alive and metabolically active cells. Since a linear relationship between the absorbance and the concentration of the cells is not established when a concentration of cells in well to be measured is excessively high or low, a process of determining an optimal concentration of the cells was performed. […]

[4] = tested on: human mesenchymal stem cells (hMSC); experiment: Cell differentiation ability by alkaline phosphatase (ALP) staining; format: cell-based; set-up: dose or concentration left out as unconfirmed; conditions: hard tissue-forming medium, 14 days, compared with PBS; FIG. 4A d-f
Description: In order to detect alkaline phosphate (ALP), which is a label material shown at the initial stage of bone differentiation, for cell differentiation ability of the cell permeable peptide-bone differentiation inducing sequence conjugate, human mesenchymal stem cells (hMSC) were seeded in a 24-well plate at 1×10^3/well, and then treated with the cell permeable peptide-bone differentiation inducing sequence conjugate synthesized from Example 1 and the bone differentiation inducing sequence of Comparative Example 2 of […] for each, and then incubated in a hard tissue forming medium for 14 days. The hard tissue-forming medium contained an MSCBM medium containing 15% FBS (fetal bovine serum), […] of L-ascorbic acid, 10^−7 M dexamethasone, 1% antibiotic-antimycotic solution, and 10 mM beta-glycerol phosphate. After completion of the incubation, the medium was removed, and then the cells were washed with phosphate buffer solution (PBS) twice. The cells were fixed with 10% NBF at room temperature for 20 minutes, and then washed with a phosphate buffer solution (PBS) twice. Then, staining was conducted using the Alkaline phosphatase detection kit (Millipore, USA) by the experiment method recommended by the manufacture.

T1 sequence (Q9HCE7 whole entry): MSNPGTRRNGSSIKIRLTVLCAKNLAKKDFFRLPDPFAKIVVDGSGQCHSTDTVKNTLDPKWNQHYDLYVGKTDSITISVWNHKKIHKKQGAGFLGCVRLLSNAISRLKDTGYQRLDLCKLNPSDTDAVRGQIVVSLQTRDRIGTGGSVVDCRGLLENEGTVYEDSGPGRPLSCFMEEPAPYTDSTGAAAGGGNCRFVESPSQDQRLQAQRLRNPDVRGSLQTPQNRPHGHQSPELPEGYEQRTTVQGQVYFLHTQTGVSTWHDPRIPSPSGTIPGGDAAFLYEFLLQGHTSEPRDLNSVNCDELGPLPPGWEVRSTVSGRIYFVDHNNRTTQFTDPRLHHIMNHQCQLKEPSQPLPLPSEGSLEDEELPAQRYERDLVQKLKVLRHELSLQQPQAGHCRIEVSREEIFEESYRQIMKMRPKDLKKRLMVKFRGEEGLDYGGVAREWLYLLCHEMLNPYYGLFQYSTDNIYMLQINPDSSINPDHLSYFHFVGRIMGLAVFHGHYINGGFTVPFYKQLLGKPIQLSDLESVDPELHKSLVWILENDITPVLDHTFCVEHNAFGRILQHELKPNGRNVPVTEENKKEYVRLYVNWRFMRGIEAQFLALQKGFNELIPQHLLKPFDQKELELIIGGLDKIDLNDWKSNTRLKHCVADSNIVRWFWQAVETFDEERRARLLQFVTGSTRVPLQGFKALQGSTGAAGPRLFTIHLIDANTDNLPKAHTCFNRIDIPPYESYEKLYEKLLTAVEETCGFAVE

NH2-GAPPPADSAP-SSRKKNPNCRRH-C-COONH2 (H-GAPPPADSAPSSRKKNPNCRRHC-NH2; cysteine pairing not given here) [Example 1]
RUNX2 in the nucleus (western blot) [1]: noticeably increased RUNX2
phosphorylation of Smad1/5/8 (western blot) [1]: exhibited Smad 1/5/8 phosphorylation
affinity to Smurf1 [2]: 600 RU
cytotoxicity (MTT, cell proliferation ability compared with PBS) [3]: did not exhibit cytotoxicity
differentiation into osteoblast, alkaline phosphatase staining [4]: relatively strong staining degree of alkaline phosphatase
